What is called EC50 is the concentration at which the effect is half-maximal. A higher EC50 goes with a less potent agent.

SMILES strings stand for the structures. A value given as a limit tells only on which side of the number the result lay.

Consider 27 compounds from ChEMBL document CHEMBL1138369, “Novel nucleotide triphosphates as potent P2Y2 agonists” (Bioorg Med Chem Lett, 2007).

Holding throughout (format): functional
For one test, the target named is P2Y purinoceptor 2 (Homo sapiens, UniProt P41231). The test can be described thus: Agonist activity at human P2Y2 receptor expressed in human 1321N1 by FLIPR assay.
Chain of P2Y purinoceptor 2 (P41231 whole entry): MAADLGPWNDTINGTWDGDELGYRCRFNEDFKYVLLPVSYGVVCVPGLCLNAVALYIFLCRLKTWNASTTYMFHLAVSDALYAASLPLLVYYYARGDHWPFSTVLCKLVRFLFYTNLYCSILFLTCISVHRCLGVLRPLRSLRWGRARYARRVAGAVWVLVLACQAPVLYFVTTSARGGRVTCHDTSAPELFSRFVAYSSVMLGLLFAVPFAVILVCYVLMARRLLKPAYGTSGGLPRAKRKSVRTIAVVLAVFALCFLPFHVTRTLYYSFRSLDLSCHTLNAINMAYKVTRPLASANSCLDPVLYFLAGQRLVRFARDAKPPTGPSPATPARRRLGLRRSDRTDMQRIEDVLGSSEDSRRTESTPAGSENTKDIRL
In a further test the target is P2Y purinoceptor 1 (Homo sapiens, UniProt P47900). The test can be described thus: Agonist activity at human cloned P2Y1 receptor expressed in human 1321N1 by FLIPR assay.
Chain of P2Y purinoceptor 1 (P47900 whole entry): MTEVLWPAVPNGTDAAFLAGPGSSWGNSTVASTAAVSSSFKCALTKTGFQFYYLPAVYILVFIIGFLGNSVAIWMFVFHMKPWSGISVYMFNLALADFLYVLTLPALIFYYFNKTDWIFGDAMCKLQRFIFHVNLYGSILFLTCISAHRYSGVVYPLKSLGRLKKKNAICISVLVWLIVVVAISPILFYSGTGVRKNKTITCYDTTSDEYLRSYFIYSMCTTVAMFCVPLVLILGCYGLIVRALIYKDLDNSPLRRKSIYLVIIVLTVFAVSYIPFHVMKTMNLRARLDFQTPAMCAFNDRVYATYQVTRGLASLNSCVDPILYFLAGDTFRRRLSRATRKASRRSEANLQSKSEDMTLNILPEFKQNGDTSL
A further test deals with P2Y purinoceptor 4 (Homo sapiens, UniProt P51582). The test can be described thus: Agonist activity at human cloned P2Y4 receptor expressed in human 1321N1 by FLIPR assay.
Chain of P2Y purinoceptor 4 (P51582 whole entry): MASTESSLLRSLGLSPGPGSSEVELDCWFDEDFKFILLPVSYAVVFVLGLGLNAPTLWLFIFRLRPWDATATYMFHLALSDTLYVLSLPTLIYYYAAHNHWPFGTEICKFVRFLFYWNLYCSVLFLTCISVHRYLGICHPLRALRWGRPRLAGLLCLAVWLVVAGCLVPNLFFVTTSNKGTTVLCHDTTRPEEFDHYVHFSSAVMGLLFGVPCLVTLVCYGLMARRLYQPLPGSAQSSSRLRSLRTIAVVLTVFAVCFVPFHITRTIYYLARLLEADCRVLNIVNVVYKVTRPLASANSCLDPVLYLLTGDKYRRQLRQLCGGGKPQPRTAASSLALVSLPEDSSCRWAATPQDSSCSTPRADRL
A further test addresses P2Y purinoceptor 6 (Homo sapiens, UniProt Q15077). The test can be described thus: Agonist activity at human cloned P2Y6 receptor expressed in human 1321N1 by FLIPR assay.

Chain of P2Y purinoceptor 6 (Q15077 whole entry): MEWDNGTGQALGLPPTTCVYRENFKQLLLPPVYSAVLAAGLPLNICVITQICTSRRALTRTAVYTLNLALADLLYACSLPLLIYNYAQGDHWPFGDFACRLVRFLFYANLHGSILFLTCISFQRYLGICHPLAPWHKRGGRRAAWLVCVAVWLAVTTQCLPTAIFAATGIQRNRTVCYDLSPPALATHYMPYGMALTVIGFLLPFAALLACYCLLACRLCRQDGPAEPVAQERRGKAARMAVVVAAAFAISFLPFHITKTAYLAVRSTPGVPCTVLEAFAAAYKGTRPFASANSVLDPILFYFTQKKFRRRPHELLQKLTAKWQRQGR

As to `COc1cc2ccn([C@@H]3O[C@H](COP(=O)(O)OP(=O)(O)OP(=O)(O)O)[C@@H](O)[C@H]3O)c(=O)c2cc1F`, the EC50 on P2Y purinoceptor 2 was 6 nM.

With `CS(=O)(=O)c1ccc2ccn([C@@H]3O[C@H](COP(=O)(O)OP(=O)(O)OP(=O)(O)O)[C@@H](O)[C@H]3O)c(=O)c2c1`, the EC50 at P2Y purinoceptor 2 was 650 nM.

On P2Y purinoceptor 2, `CN(C)c1cc2ccn([C@@H]3O[C@H](COP(=O)(O)OP(=O)(O)OP(=O)(O)O)[C@@H](O)[C@H]3O)c(=O)c2cc1F` registered an EC50 of 4 nM. `O=c1c2c(ccn1[C@@H]1O[C@H](COP(=O)(O)OP(=O)(O)OP(=O)(O)O)[C@@H](O)[C@H]1O)CCCC2` gave an EC50 at P2Y purinoceptor 2 of 55 nM.

As to `O=c1c2ccsc2ccn1[C@@H]1O[C@H](COP(=O)(O)OP(=O)(O)OP(=O)(O)O)[C@@H](O)[C@H]1O`, the EC50 at P2Y purinoceptor 2 was found to be 30 nM. For the compound `N#Cc1ccc2c(=O)n([C@@H]3O[C@H](COP(=O)(O)OP(=O)(O)OP(=O)(O)O)[C@@H](O)[C@H]3O)ccc2c1`, the EC50 at P2Y purinoceptor 2 is 88 nM. With `O=c1c2cc(Cl)ccc2ccn1[C@@H]1O[C@H](COP(=O)(O)OP(=O)(O)OP(=O)(O)O)[C@@H](O)[C@H]1O`, the EC50 is 10 nM at P2Y purinoceptor 2, above 20000 nM at P2Y purinoceptor 1, 20000 nM on P2Y purinoceptor 4 and above 20000 nM at P2Y purinoceptor 6. In the case of `N#Cc1ccc2ccn([C@@H]3O[C@H](COP(=O)(O)OP(=O)(O)OP(=O)(O)O)[C@@H](O)[C@H]3O)c(=O)c2c1`, at P2Y purinoceptor 2, a half-maximal effect (EC50) was put at 12 nM.

As to `CSc1ccc2ccn([C@@H]3O[C@H](COP(=O)(O)OP(=O)(O)OP(=O)(O)O)[C@@H](O)[C@H]3O)c(=O)c2c1`, the response at P2Y purinoceptor 2 was half-maximal at 140 nM (EC50). On to `O=c1c2occc2ccn1[C@@H]1O[C@H](COP(=O)(O)OP(=O)(O)OP(=O)(O)O)[C@@H](O)[C@H]1O`, for which, on P2Y purinoceptor 2, the EC50 came out at 221 nM. On the same count and under the same terms, the same measure for `Cc1cn([C@@H]2O[C@H](COP(=O)(O)OP(=O)(O)OP(=O)(O)O)[C@@H](O)[C@H]2O)c(=O)c2ccccc12`: 17500 nM; for `Cc1ccc2c(=O)n([C@@H]3O[C@H](COP(=O)(O)OP(=O)(O)OP(=O)(O)O)[C@@H](O)[C@H]3O)ccc2c1`: 35 nM.

Turning to `Cc1ccc2ccn([C@@H]3O[C@H](COP(=O)(O)OP(=O)(O)OP(=O)(O)O)[C@@H](O)[C@H]3O)c(=O)c2c1`, at P2Y purinoceptor 2, the response was half-maximal at 148 nM (EC50). Still for that read-out and setting: under `O=c1c2ccc(F)cc2ccn1[C@@H]1O[C@H](COP(=O)(O)OP(=O)(O)OP(=O)(O)O)[C@@H](O)[C@H]1O` stands 77 nM. Still for that read-out and setting: the same measure for `O=c1c2ccc(Cl)cc2ccn1[C@@H]1O[C@H](COP(=O)(O)OP(=O)(O)OP(=O)(O)O)[C@@H](O)[C@H]1O`: 541 nM; for `Cc1cccc2ccn([C@@H]3O[C@H](COP(=O)(O)OP(=O)(O)OP(=O)(O)O)[C@@H](O)[C@H]3O)c(=O)c12`: 85 nM.

With `O=c1c2cc(F)c(F)cc2ccn1[C@@H]1O[C@H](COP(=O)(O)OP(=O)(O)OP(=O)(O)O)[C@@H](O)[C@H]1O`, the EC50 at P2Y purinoceptor 2 was 16 nM; at P2Y purinoceptor 1 it was above 20000 nM; on P2Y purinoceptor 4 it was above 20000 nM; on P2Y purinoceptor 6, above 20000 nM. As to `O=c1c2ccccc2ccn1[C@@H]1O[C@H](COP(=O)(O)OP(=O)(O)OP(=O)(O)O)[C@@H](O)[C@H]1O`, the EC50 on P2Y purinoceptor 2 is 31 nM; at P2Y purinoceptor 1 it was above 20000 nM; on P2Y purinoceptor 4 it was 7040 nM; at P2Y purinoceptor 6 it was above 20000 nM. As for `O=c1c2ccoc2ccn1[C@@H]1O[C@H](COP(=O)(O)OP(=O)(O)OP(=O)(O)O)[C@@H](O)[C@H]1O`, the EC50 at P2Y purinoceptor 2 is 68 nM. On to `Cc1cccc2c(=O)n([C@@H]3O[C@H](COP(=O)(O)OP(=O)(O)OP(=O)(O)O)[C@@H](O)[C@H]3O)ccc12`, for which, on P2Y purinoceptor 2, a half-maximal effect (EC50) was put at 557 nM. `O=c1c2cc(Cl)c(Cl)cc2ccn1[C@@H]1O[C@H](COP(=O)(O)OP(=O)(O)OP(=O)(O)O)[C@@H](O)[C@H]1O` registered an EC50 at P2Y purinoceptor 2 of 13 nM. With `O=c1c2cc(F)ccc2ccn1[C@@H]1O[C@H](COP(=O)(O)OP(=O)(O)OP(=O)(O)O)[C@@H](O)[C@H]1O`, the EC50 on P2Y purinoceptor 2 is 5 nM; at P2Y purinoceptor 1 it was above 20000 nM; on P2Y purinoceptor 4, 3580 nM; at P2Y purinoceptor 6 it was above 20000 nM. Regarding `COc1ccc2ccn([C@@H]3O[C@H](COP(=O)(O)OP(=O)(O)OP(=O)(O)O)[C@@H](O)[C@H]3O)c(=O)c2c1`, at P2Y purinoceptor 2, the concentration for a half-maximal effect (EC50) was determined as 26 nM.

Turning to `CSc1cc2ccn([C@@H]3O[C@H](COP(=O)(O)OP(=O)(O)OP(=O)(O)O)[C@@H](O)[C@H]3O)c(=O)c2cc1F`, the EC50 on P2Y purinoceptor 2 is 3 nM; at P2Y purinoceptor 1, above 20000 nM; at P2Y purinoceptor 4, above 20000 nM; on P2Y purinoceptor 6, above 20000 nM. The compound `O=c1c2cccnc2ccn1[C@@H]1O[C@H](COP(=O)(O)OP(=O)(O)OP(=O)(O)O)[C@@H](O)[C@H]1O` showed an EC50 at P2Y purinoceptor 2 of 35 nM. In the case of `O=c1ccn([C@@H]2O[C@H](COP(=O)(O)OP(=O)(O)OP(=O)(O)OP(=O)(O)OC[C@H]3O[C@@H](n4ccc(=O)[nH]c4=O)[C@H](O)[C@@H]3O)[C@@H](O)[C@H]2O)c(=O)[nH]1` [DIQUAFOSOL], the EC50 on P2Y purinoceptor 1 is above 20000 nM.

Consider `O=c1ccn([C@@H]2O[C@H](COP(=O)(O)OP(=O)(O)OP(=O)(O)O)[C@@H](O)[C@H]2O)c(=O)[nH]1` [URIDINE TRIPHOSPHATE], for which the EC50 was 7 nM at P2Y purinoceptor 2, above 2000 nM at P2Y purinoceptor 1, 39 nM on P2Y purinoceptor 4 and 424 nM at P2Y purinoceptor 6.
